Results as given in patent US9302999B2, “Substituted triazoles as herbicides” (E. I. DU PONT DE NEMOURS AND COMPANY, priority 2012, dated 2016).

Key:
Format in all cases: in vivo
[1] = test system: lambsquarters (Chenopodium album); test: Test E pre-/postemergence: lambsquarters; conditions: Preemergence, scale 0 to 100
How it was run: (§1)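 Preemergence: seeds sown in silt loam soil and treated with test chemicals in non-phytotoxic solvent with surfactant. Postemergence: plants at 2 to 18 cm (1- to 4-leaf stage) in peat/vermiculite medium were sprayed with the same formulations. After 14 to 21 days in greenhouse, injury was rated visually against controls, 0 (no effect) to 100 (complete control).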

[2] = test system: beggarticks (hairy beggarticks, Bidens pilosa); test: Test E pre-/postemergence: beggarticks; conditions: scale 0 to 100
How it was run: as §1

[3] = test system: foxtail, giant (giant foxtail, Setaria faberii); test: Test E pre-/postemergence: foxtail, giant; conditions: Preemergence, scale 0 to 100
How it was run: as §1

[4] = test system: nutsedge, yellow (yellow nutsedge, Cyperus esculentus); test: Test E pre-/postemergence: nutsedge, yellow; conditions: Preemergence, scale 0 to 100
Text: (§2) Seeds of plant species selected from corn (Zea mays), soybean (Glycine max), velvetleaf (Abutilon theophrasti), lambsquarters (Chenopodium album), poinsettia, wild (wild poinsettia, Euphorbia heterophylla), pigweed, palmer (palmer pigweed, Amaranthus palmeri), waterhemp (common waterhemp, Amaranthus rudis), smartweed (ladysthumb smartweed, Polygonum persicaria), surinam grass (Brachiaria decumbens), crabgrass, large (large crabgrass, Digitaria sanguinalis), crabgrass, Brazil (Brazilian crabgrass, Digitaria horizontalis), panicum, fall (fall panicum, Panicum dichotomiflorum), foxtail, giant (giant foxtail, Setaria faberii), foxtail, green (green foxtail, Setaria viridis), goosegrass (Eleusine indica), johnsongrass (Sorghum halepense), ragweed (common ragweed, Ambrosia elation), barnyardgrass (Echinochloa crus-galli), sandbur (southern sandbur, Cenchrus echinatus), arrowleaf sida (Sida rhombifolia), ryegrass, Italian (Italian ryegrass, Lolium multiflorum), dayflower, (VA) (Virginia dayflower, Commelina virginica), field bindweed (Convolvulus arvensis), cocklebur (common cocklebur, Xanthium strumarium), morningglory (Ipomoea coccinea), nightshade (eastern black nightshade, Solanum ptycanthum), kochia (Kochia scoparia), nutsedge, yellow (yellow nutsedge, Cyperus esculentus) and beggarticks (hairy beggarticks, Bidens pilosa) were planted into a silt loam soil and treated preemergence with test chemicals formulated in a non-phytotoxic solvent mixture which included a surfactant. At the same time, plants selected from these crop and weed species were planted in pots containing a growing medium comprising spaghnum peat moss, vermiculite, wetting agent and starter nutrients and treated with postemergence applications of some of the test chemicals formulated in the same manner. Plants ranged in height from 2 to 18 cm for postemergence treatments (1- to 4-leaf stage).
(§3) Treated plants and controls were maintained in a greenhouse for 14 to 21 days, after which time all species were compared to controls and visually evaluated. Plant response ratings, summarized in Table E, are based on a scale of 0 to 100 where 0 is no effect and 100 is complete control. A dash (-) response means no test result.

corn (Zea mays) = test: Test E pre-/postemergence: corn; conditions: scale 0 to 100
Text: as §2, §3

[5] = test system: sandbur (southern sandbur, Cenchrus echinatus); test: Test E pre-/postemergence: sandbur; conditions: scale 0 to 100
How it was run: as §1

[6] = test system: barnyardgrass (Echinochloa crus-galli); test: Test E pre-/postemergence: barnyardgrass; conditions: scale 0 to 100
How it was run: as §1

[7] = test system: arrowleaf sida (Sida rhombifolia); test: Test E pre-/postemergence: arrowleaf sida; conditions: scale 0 to 100
How it was run: as §1

[8] = test system: cocklebur (common cocklebur, Xanthium strumarium); test: Test E pre-/postemergence: cocklebur; conditions: Preemergence, scale 0 to 100
How it was run: as §1

COc1nn(-c2ccc(C(F)(F)F)cc2)nc1Cc1ccnc(C(F)(F)F)c1 [Compound 15, 4-[[5-methoxy-2-[4-(trifluoromethyl)phenyl]-2H-1,2,3-triazol-4-yl]methyl]-2-(trifluoromethyl)pyridine]
Plant response rating: Lambsquarters ([1]; 16 g ai/ha): 90 | Plant response rating: Lambsquarters ([1]; 31 g ai/ha): 100 | Plant response rating: Lambsquarters ([1]; 62 g ai/ha): 100 | Plant response rating: Lambsquarters ([1]; 125 g ai/ha): 100 | Plant response rating: Lambsquarters ([1]; 250 g ai/ha): 100 | Plant response rating: Beggarticks ([2]; Preemergence, 16 g ai/ha): 5 | Plant response rating: Beggarticks ([2]; Preemergence, 31 g ai/ha): 5 | Plant response rating: Beggarticks ([2]; Preemergence, 62 g ai/ha): 50 | Plant response rating: Beggarticks ([2]; Preemergence, 125 g ai/ha): 80 | Plant response rating: Beggarticks ([2]; Preemergence, 250 g ai/ha): 100 | Plant response rating: Foxtail, Giant ([3]; 16 g ai/ha): 65 | Plant response rating: Foxtail, Giant ([3]; 31 g ai/ha): 98 | Plant response rating: Foxtail, Giant ([3]; 62 g ai/ha): 100 | Plant response rating: Foxtail, Giant ([3]; 125 g ai/ha): 100 | Plant response rating: Foxtail, Giant ([3]; 250 g ai/ha): 100 | Plant response rating: Nutsedge, Yellow ([4]; 16 g ai/ha): 0 | Plant response rating: Nutsedge, Yellow ([4]; 31 g ai/ha): 0 | Plant response rating: Nutsedge, Yellow ([4]; 62 g ai/ha): 0 | Plant response rating: Nutsedge, Yellow ([4]; 125 g ai/ha): 0 | Plant response rating: Nutsedge, Yellow ([4]; 250 g ai/ha): 0 | Plant response rating: Corn (corn (Zea mays); Preemergence, 16 g ai/ha): 0 | Plant response rating: Corn (corn (Zea mays); Preemergence, 31 g ai/ha): 0 | Plant response rating: Corn (corn (Zea mays); Preemergence, 62 g ai/ha): 0 | Plant response rating: Corn (corn (Zea mays); Preemergence, 125 g ai/ha): 5 | Plant response rating: Corn (corn (Zea mays); Preemergence, 250 g ai/ha): 10 | Plant response rating: Sandbur ([5]; Preemergence, 16 g ai/ha): 5 | Plant response rating: Sandbur ([5]; Preemergence, 31 g ai/ha): 25 | Plant response rating: Sandbur ([5]; Preemergence, 62 g ai/ha): 50 | Plant response rating: Sandbur ([5]; Preemergence, 125 g ai/ha): 90 | Plant response rating: Sandbur ([5]; Preemergence, 250 g ai/ha): 100 | Plant response rating: Barnyardgrass ([6]; Preemergence, 16 g ai/ha): 10 | Plant response rating: Barnyardgrass ([6]; Preemergence, 31 g ai/ha): 50 | Plant response rating: Barnyardgrass ([6]; Preemergence, 62 g ai/ha): 85 | Plant response rating: Barnyardgrass ([6]; Preemergence, 125 g ai/ha): 98 | Plant response rating: Barnyardgrass ([6]; Preemergence, 250 g ai/ha): 100 | Plant response rating: Arrowleaf Sida ([7]; Preemergence, 31 g ai/ha): 30 | Plant response rating: Arrowleaf Sida ([7]; Preemergence, 62 g ai/ha): 40 | Plant response rating: Arrowleaf Sida ([7]; Preemergence, 125 g ai/ha): 50 | Plant response rating: Arrowleaf Sida ([7]; Preemergence, 250 g ai/ha): 60 | Plant response rating: Cocklebur ([8]; 31 g ai/ha): 0 | Plant response rating: Cocklebur ([8]; 62 g ai/ha): 0 | Plant response rating: Cocklebur ([8]; 250 g ai/ha): 20

Cc1nn(-c2ccc(C(F)(F)F)cc2)nc1Oc1ccnc(C(F)(F)F)c1 [Compound 120]
Plant response rating: Lambsquarters ([1]; 16 g ai/ha): 0 | Plant response rating: Lambsquarters ([1]; 31 g ai/ha): 50 | Plant response rating: Lambsquarters ([1]; 62 g ai/ha): 90 | Plant response rating: Lambsquarters ([1]; 125 g ai/ha): 98 | Plant response rating: Lambsquarters ([1]; 250 g ai/ha): 98 | Plant response rating: Beggarticks ([2]; Postemergence, 8 g ai/ha): 10 | Plant response rating: Beggarticks ([2]; Postemergence, 16 g ai/ha): 10 | Plant response rating: Beggarticks ([2]; Postemergence, 31 g ai/ha): 20 | Plant response rating: Beggarticks ([2]; Postemergence, 62 g ai/ha): 30 | Plant response rating: Beggarticks ([2]; Postemergence, 125 g ai/ha): 35 | Plant response rating: Beggarticks ([2]; Preemergence, 16 g ai/ha): 0 | Plant response rating: Beggarticks ([2]; Preemergence, 31 g ai/ha): 0 | Plant response rating: Beggarticks ([2]; Preemergence, 125 g ai/ha): 80 | Plant response rating: Foxtail, Giant ([3]; 16 g ai/ha): 85 | Plant response rating: Foxtail, Giant ([3]; 31 g ai/ha): 100 | Plant response rating: Foxtail, Giant ([3]; 62 g ai/ha): 100 | Plant response rating: Foxtail, Giant ([3]; 125 g ai/ha): 100 | Plant response rating: Foxtail, Giant ([3]; 250 g ai/ha): 100 | Plant response rating: Nutsedge, Yellow ([4]; 16 g ai/ha): 0 | Plant response rating: Nutsedge, Yellow ([4]; 31 g ai/ha): 0 | Plant response rating: Nutsedge, Yellow ([4]; 62 g ai/ha): 0 | Plant response rating: Nutsedge, Yellow ([4]; 125 g ai/ha): 15 | Plant response rating: Nutsedge, Yellow ([4]; 250 g ai/ha): 25 | Plant response rating: Corn (corn (Zea mays); Postemergence, 8 g ai/ha): 10 | Plant response rating: Corn (corn (Zea mays); Postemergence, 16 g ai/ha): 10 | Plant response rating: Corn (corn (Zea mays); Postemergence, 31 g ai/ha): 10 | Plant response rating: Corn (corn (Zea mays); Postemergence, 62 g ai/ha): 20 | Plant response rating: Corn (corn (Zea mays); Postemergence, 125 g ai/ha): 20 | Plant response rating: Corn (corn (Zea mays); Preemergence, 16 g ai/ha): 0 | Plant response rating: Corn (corn (Zea mays); Preemergence, 62 g ai/ha): 5 | Plant response rating: Corn (corn (Zea mays); Preemergence, 125 g ai/ha): 10 | Plant response rating: Corn (corn (Zea mays); Preemergence, 250 g ai/ha): 10 | Plant response rating: Sandbur ([5]; Postemergence, 8 g ai/ha): 10 | Plant response rating: Sandbur ([5]; Postemergence, 16 g ai/ha): 10 | Plant response rating: Sandbur ([5]; Postemergence, 31 g ai/ha): 20 | Plant response rating: Sandbur ([5]; Postemergence, 62 g ai/ha): 30 | Plant response rating: Sandbur ([5]; Postemergence, 125 g ai/ha): 35 | Plant response rating: Sandbur ([5]; Preemergence, 16 g ai/ha): 5 | Plant response rating: Sandbur ([5]; Preemergence, 31 g ai/ha): 5 | Plant response rating: Sandbur ([5]; Preemergence, 62 g ai/ha): 5 | Plant response rating: Sandbur ([5]; Preemergence, 125 g ai/ha): 20 | Plant response rating: Sandbur ([5]; Preemergence, 250 g ai/ha): 75 | Plant response rating: Barnyardgrass ([6]; Postemergence, 8 g ai/ha): 10 | Plant response rating: Barnyardgrass ([6]; Postemergence, 16 g ai/ha): 10 | Plant response rating: Barnyardgrass ([6]; Postemergence, 31 g ai/ha): 20 | Plant response rating: Barnyardgrass ([6]; Postemergence, 62 g ai/ha): 25 | Plant response rating: Barnyardgrass ([6]; Postemergence, 125 g ai/ha): 30 | Plant response rating: Barnyardgrass ([6]; Preemergence, 16 g ai/ha): 0 | Plant response rating: Barnyardgrass ([6]; Preemergence, 31 g ai/ha): 0 | Plant response rating: Barnyardgrass ([6]; Preemergence, 62 g ai/ha): 5 | Plant response rating: Barnyardgrass ([6]; Preemergence, 125 g ai/ha): 25 | Plant response rating: Barnyardgrass ([6]; Preemergence, 250 g ai/ha): 100 | Plant response rating: Arrowleaf Sida ([7]; Postemergence, 8 g ai/ha): 30 | Plant response rating: Arrowleaf Sida ([7]; Postemergence, 16 g ai/ha): 40 | Plant response rating: Arrowleaf Sida ([7]; Postemergence, 31 g ai/ha): 40 | Plant response rating: Arrowleaf Sida ([7]; Postemergence, 62 g ai/ha): 50 | Plant response rating: Arrowleaf Sida ([7]; Postemergence, 125 g ai/ha): 50 | Plant response rating: Arrowleaf Sida ([7]; Preemergence, 16 g ai/ha): 0 | Plant response rating: Arrowleaf Sida ([7]; Preemergence, 31 g ai/ha): 0 | Plant response rating: Arrowleaf Sida ([7]; Preemergence, 62 g ai/ha): 0 | Plant response rating: Arrowleaf Sida ([7]; Preemergence, 125 g ai/ha): 15 | Plant response rating: Arrowleaf Sida ([7]; Preemergence, 250 g ai/ha): 50 | Plant response rating: Cocklebur ([8]; 16 g ai/ha): 0 | Plant response rating: Cocklebur ([8]; 31 g ai/ha): 0 | Plant response rating: Cocklebur ([8]; 62 g ai/ha): 90 | Plant response rating: Cocklebur ([8]; 125 g ai/ha): 90
